Assays:
Test in all cases: Post-emergent evaluation
Format in all cases: in vivo
Settings in all cases: after 2 weeks
[1] = tested on: Canada thistle (Cirsium arvense, CIRAR)
Protocol: (§1) Seeds of the desired test plant species were planted in Grace-Sierra MetroMix® 306 planting mixture, which typically has a pH of 6.0 to 6.8 and an organic matter content of about 30 percent, in plastic pots with a surface area of 64 square centimeters. When required to ensure good germination and healthy plants, a fungicide treatment and/or other chemical or physical treatment was applied. The plants were grown for 7-21 days in a greenhouse with an approximate 15 hr photoperiod which was maintained at about 23-29° C. during the day and 22-28° C. during the night. Nutrients and water were added on a regular basis and supplemental lighting was provided with overhead metal halide 1000-Watt lamps as necessary. The plants were employed for testing when they reached the first or second true leaf stage.
(§2) A weighed amount, determined by the highest rate to be tested, of each test compound was placed in a 20 mL glass vial and was dissolved in 4 mL of a 97:3 v/v (volume/volume) mixture of acetone and dimethyl sulfoxide (DMSO) to obtain concentrated stock solutions. […] The concentrated stock solutions obtained were diluted with an aqueous mixture containing acetone, water, isopropyl alcohol, DMSO, Atplus 411F crop oil concentrate, and Triton X-155 surfactant in a 48.5:39:10:1.5:1.0:0.02 v/v ratio to obtain spray solutions of known concentration. The solutions containing the highest concentration to be tested were prepared by diluting 2 mL aliquots of the stock solution with 13 mL of the mixture and lower concentrations were prepared by serial dilution of the stock solution. Approximately 1.5 mL aliquots of each solution of known concentration were sprayed evenly onto each of the test plant pots using a DeVilbiss atomizer driven by compressed air pressure of 2 to 4 psi ([…]) to obtain thorough coverage of each plant. Control plants were sprayed in the same manner with the aqueous mixture. In this test an application rate of 1 ppm results in the application of approximately 1 g/Ha.
(§3) The treated plants and control plants were placed in a greenhouse as described above and watered by sub-irrigation to prevent wash-off of the test compounds. After 2 weeks the condition of the test plants as compared with that of the untreated plants was determined visually and scored on a scale of 0 to 100 percent where 0 corresponds to no injury and 100 corresponds to complete kill. Species abbreviations as described for Table I with the following additions: soybean (Glycine max, GLXMA), rape (Brassica napus, BRSNN), chickweed (Stellaria media, STEME), cocklebur (Xanthium strumarium XANST), lambsquarters (Chenopodium album, CHEAL), violet (Viola tricolor, VIOTR), bindweed (Polygonum convolvulus, POLCO), spurge (Euphorbia heterophylla, EPHHL), Canada thistle (Cirsium arvense, CIRAR), corn (Zea mays, ZEAMX), rice (Oryza sativa, ORYSA), wheat (Triticum aestivum, TRZAS), crabgrass (Digitaria sanguinalis, DIGSA), shattercane (Sorghum vulgare, SORVU) and yellow nutsedge (Cyperus esculentus, CYPES).

[2] = tested on: bindweed (Polygonum convolvulus, POLCO)
Protocol: as §1, §2, §3

[3] = tested on: blackgrass (Alopecurus myosuroides, ALOMY)
Protocol: as §1, §2, §3

[4] = tested on: cocklebur (Xanthium strumarium XANST)
Protocol: as §1, §2, §3

corn (Zea mays, ZEAMX) = tested on: corn (Zea mays, ZEAMX)
Protocol: as §1, §2, §3

[5] = tested on: lambsquarters (Chenopodium album, CHEAL)
Protocol: as §1, §2, §3

[6] = tested on: pigweed (Amaranthus spp., AMARE)
Protocol: as §1, §2, §3

[7] = tested on: rape (Brassica napus, BRSNN)
Protocol: as §1, §2, §3

[8] = tested on: rice (Oryza sativa, ORYSA)
Protocol: as §1, §2, §3

[9] = tested on: soybean (Glycine max, GLXMA)
Protocol: as §1, §2, §3

[10] = tested on: spurge (Euphorbia heterophylla, EPHHL)
Protocol: as §1, §2, §3

[11] = tested on: wheat (Triticum aestivum, TRZAS)
Protocol: as §1, §2, §3

[12] = tested on: wild oats (Avena fatua, AVEFA)
Protocol: as §1, §2, §3

Q: C=C(CO)C(C)(O)CC(=O)O (centres unmarked) [methylidene mevalonate, 3-hydroxy-4-(hydroxymethyl)-3-methylpent-4-enoic acid] was tested. Which “Postemergent % Control” value ([1]; spray concentration 125 ppm) did it give?
A: Its value is 10%.

Q: What about the “Postemergent % Control” value ([1]; spray concentration 250 ppm) of the same compound?
A: Its value is 10%.

Q: And the “Postemergent % Control” value ([1]; spray concentration 500 ppm)?
A: The value was 20%.

Q: What about the “Postemergent % Control” value ([1]; spray concentration 1000 ppm) of the same compound?
A: Its value is 40%.

Q: What about the “Postemergent % Control” value ([1]; spray concentration 2000 ppm) of the same compound?
A: The value was 50%.

Q: And the “Postemergent % Control” value ([2]; spray concentration 125 ppm)?
A: The value was 20%.

Q: What about the “Postemergent % Control” value ([2]; spray concentration 250 ppm) of the same compound?
A: Its value is 20%.

Q: What about the “Postemergent % Control” value ([2]; spray concentration 500 ppm) of the same compound?
A: The value was 85%.

Q: What about the “Postemergent % Control” value ([2]; spray concentration 1000 ppm) of the same compound?
A: The value was 90%.

Q: What about the “Postemergent % Control” value ([2]; spray concentration 2000 ppm) of the same compound?
A: Its value is 95%.

Q: And the “Postemergent % Control” value ([3]; spray concentration 125 ppm)?
A: The value was 0%.

Q: And the “Postemergent % Control” value ([3]; spray concentration 250 ppm)?
A: Its value is 20%.

Q: And the “Postemergent % Control” value ([3]; spray concentration 500 ppm)?
A: The value was 60%.

Q: What about the “Postemergent % Control” value ([3]; spray concentration 1000 ppm) of the same compound?
A: The value was 70%.

Q: What about the “Postemergent % Control” value ([3]; spray concentration 2000 ppm) of the same compound?
A: Its value is 80%.

Q: And the “Postemergent % Control” value ([4]; spray concentration 125 ppm)?
A: The value was 0%.

Q: And the “Postemergent % Control” value ([4]; spray concentration 250 ppm)?
A: The value was 5%.

Q: And the “Postemergent % Control” value ([4]; spray concentration 500 ppm)?
A: The value was 10%.

Q: And the “Postemergent % Control” value ([4]; spray concentration 1000 ppm)?
A: The value was 20%.

Q: And the “Postemergent % Control” value ([4]; spray concentration 2000 ppm)?
A: Its value is 20%.

Q: And the “Postemergent % Control” value (corn (Zea mays, ZEAMX); spray concentration 125 ppm)?
A: The value was 0%.

Q: And the “Postemergent % Control” value (corn (Zea mays, ZEAMX); spray concentration 250 ppm)?
A: Its value is 20%.

Q: What about the “Postemergent % Control” value (corn (Zea mays, ZEAMX); spray concentration 500 ppm) of the same compound?
A: Its value is 60%.

Q: What about the “Postemergent % Control” value (corn (Zea mays, ZEAMX); spray concentration 1000 ppm) of the same compound?
A: The value was 98%.

Q: And the “Postemergent % Control” value (corn (Zea mays, ZEAMX); spray concentration 2000 ppm)?
A: Its value is 98%.

Q: And the “Postemergent % Control” value ([5]; spray concentration 125 ppm)?
A: Its value is 0%.

Q: And the “Postemergent % Control” value ([5]; spray concentration 250 ppm)?
A: The value was 0%.

Q: What about the “Postemergent % Control” value ([5]; spray concentration 500 ppm) of the same compound?
A: The value was 10%.

Q: And the “Postemergent % Control” value ([5]; spray concentration 1000 ppm)?
A: Its value is 50%.

Q: What about the “Postemergent % Control” value ([5]; spray concentration 2000 ppm) of the same compound?
A: The value was 80%.

Q: And the “Postemergent % Control” value ([6]; spray concentration 125 ppm)?
A: The value was 10%.

Q: What about the “Postemergent % Control” value ([6]; spray concentration 250 ppm) of the same compound?
A: The value was 30%.

Q: And the “Postemergent % Control” value ([6]; spray concentration 500 ppm)?
A: The value was 100%.

Q: And the “Postemergent % Control” value ([6]; spray concentration 1000 ppm)?
A: Its value is 100%.

Q: And the “Postemergent % Control” value ([6]; spray concentration 2000 ppm)?
A: Its value is 100%.

Q: What about the “Postemergent % Control” value ([7]; spray concentration 125 ppm) of the same compound?
A: Its value is 0%.

Q: What about the “Postemergent % Control” value ([7]; spray concentration 250 ppm) of the same compound?
A: Its value is 10%.

Q: What about the “Postemergent % Control” value ([7]; spray concentration 500 ppm) of the same compound?
A: The value was 50%.

Q: What about the “Postemergent % Control” value ([7]; spray concentration 1000 ppm) of the same compound?
A: The value was 50%.

Q: What about the “Postemergent % Control” value ([7]; spray concentration 2000 ppm) of the same compound?
A: The value was 60%.

Q: And the “Postemergent % Control” value ([8]; spray concentration 125 ppm)?
A: The value was 0%.

Q: What about the “Postemergent % Control” value ([8]; spray concentration 250 ppm) of the same compound?
A: Its value is 30%.

Q: What about the “Postemergent % Control” value ([8]; spray concentration 500 ppm) of the same compound?
A: Its value is 40%.

Q: And the “Postemergent % Control” value ([8]; spray concentration 1000 ppm)?
A: The value was 80%.

Q: What about the “Postemergent % Control” value ([8]; spray concentration 2000 ppm) of the same compound?
A: Its value is 80%.

Q: And the “Postemergent % Control” value ([9]; spray concentration 125 ppm)?
A: Its value is 20%.

Q: And the “Postemergent % Control” value ([9]; spray concentration 250 ppm)?
A: Its value is 20%.

Q: What about the “Postemergent % Control” value ([9]; spray concentration 500 ppm) of the same compound?
A: Its value is 50%.

Q: What about the “Postemergent % Control” value ([9]; spray concentration 1000 ppm) of the same compound?
A: The value was 80%.

Q: And the “Postemergent % Control” value ([9]; spray concentration 2000 ppm)?
A: The value was 80%.

Q: And the “Postemergent % Control” value ([10]; spray concentration 125 ppm)?
A: The value was 30%.

Q: What about the “Postemergent % Control” value ([10]; spray concentration 250 ppm) of the same compound?
A: Its value is 30%.

Q: What about the “Postemergent % Control” value ([10]; spray concentration 500 ppm) of the same compound?
A: Its value is 50%.

Q: What about the “Postemergent % Control” value ([10]; spray concentration 1000 ppm) of the same compound?
A: The value was 60%.

Q: What about the “Postemergent % Control” value ([10]; spray concentration 2000 ppm) of the same compound?
A: The value was 70%.

Q: What about the “Postemergent % Control” value ([11]; spray concentration 125 ppm) of the same compound?
A: The value was 0%.

Q: What about the “Postemergent % Control” value ([11]; spray concentration 250 ppm) of the same compound?
A: The value was 20%.

Q: What about the “Postemergent % Control” value ([11]; spray concentration 500 ppm) of the same compound?
A: The value was 20%.

Q: And the “Postemergent % Control” value ([11]; spray concentration 1000 ppm)?
A: Its value is 70%.

Q: What about the “Postemergent % Control” value ([11]; spray concentration 2000 ppm) of the same compound?
A: The value was 80%.

Q: And the “Postemergent % Control” value ([12]; spray concentration 125 ppm)?
A: Its value is 0%.

Q: What about the “Postemergent % Control” value ([12]; spray concentration 250 ppm) of the same compound?
A: Its value is 0%.

Q: And the “Postemergent % Control” value ([12]; spray concentration 500 ppm)?
A: Its value is 20%.

Q: And the “Postemergent % Control” value ([12]; spray concentration 1000 ppm)?
A: The value was 85%.

Q: What about the “Postemergent % Control” value ([12]; spray concentration 2000 ppm) of the same compound?
A: Its value is 90%.

— patent US7393812B2, “Methylidene mevalonates and their use as herbicides” (Dow AgroSciences LLC, priority 2004, dated 2008)
